Reference: ChEMBL document CHEMBL1201862, “PubChem BioAssay data set” (2004)
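The compound was tested at five concentrations on cells cultured in 96-well plates, with a 48-hour exposure period. At the GI50, growth is halved.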 Activity calls are given as the source filed them. No stated cut-off is given here; in the data, active = GI50 up to about 1.1 µM and inactive = higher.

Key:
Assay in all cases: growth of human tumour cells (NCI), 48 h
786-0 = system: 786-0
ACHN = system: ACHN
COLO 205 = system: COLO 205
HCC 2998 = system: HCC 2998
Hs-578T = system: Hs-578T
IGROV-1 = system: IGROV-1
KM12 = system: KM12
LOX IMVI = system: LOX IMVI
M14 = system: M14
MCF7 = system: MCF7
MDA-MB-435 = system: MDA-MB-435
MOLT-4 = system: MOLT-4
Malme-3M = system: Malme-3M
NCI-H460 = system: NCI-H460
NCI-H522 = system: NCI-H522
SF-268 = system: SF-268
SF-295 = system: SF-295
SK-MEL-5 = system: SK-MEL-5
TK-10 = system: TK-10
UACC-62 = system: UACC-62

SMILES	GI50 (786-0)	GI50 (ACHN)	GI50 (COLO 205)	GI50 (HCC 2998)	GI50 (Hs-578T)	GI50 (IGROV-1)	GI50 (KM12)	GI50 (LOX IMVI)	GI50 (M14)	GI50 (MCF7)	GI50 (MDA-MB-435)	GI50 (MOLT-4)	GI50 (Malme-3M)	GI50 (NCI-H460)	GI50 (NCI-H522)	GI50 (SF-268)	GI50 (SF-295)	GI50 (SK-MEL-5)	GI50 (TK-10)	GI50 (UACC-62)
[N-]=[N+]=Nc1c([N+](=O)[O-])c(=O)n(-c2ccccc2)c2ccccc12	19.5 µM (inactive)	21.7 µM (inactive)	21.1 µM (inactive)	61.5 µM (inactive)	20 µM (inactive)	21.7 µM (inactive)	26.7 µM (inactive)	17.5 µM (inactive)	27.2 µM (inactive)	20.7 µM (inactive)	21 µM (inactive)	21.4 µM (inactive)	17 µM (inactive)	30.6 µM (inactive)	25.8 µM (inactive)	22.5 µM (inactive)	27.9 µM (inactive)	24.2 µM (inactive)	14.2 µM (inactive)	14.3 µM (inactive)
N#Cc1c(N)nc(SCc2ccccc2)c(C#N)c1-c1ccc(O)cc1	14 µM (inactive)	13.2 µM (inactive)	15.6 µM (inactive)	> 38.5 µM (inactive)	29.2 µM (inactive)	11 µM (inactive)	11 µM (inactive)	16.6 µM (inactive)	14.2 µM (inactive)	13.9 µM (inactive)	11.6 µM (inactive)	5.53 µM (inactive)	15.3 µM (inactive)	25.8 µM (inactive)	12.6 µM (inactive)	18.9 µM (inactive)	13.6 µM (inactive)	11.7 µM (inactive)	> 41.8 µM (inactive)	15.7 µM (inactive)
CN(C)CCc1ccnc2nc(-c3ccc4ccccc4c3)cn12	25 µM (inactive)	29.4 µM (inactive)	33.3 µM (inactive)	18.5 µM (inactive)	17.8 µM (inactive)	23.9 µM (inactive)	18.1 µM (inactive)	25 µM (inactive)	47.8 µM (inactive)	34.7 µM (inactive)	33.3 µM (inactive)	35.2 µM (inactive)	96.4 µM (inactive)	14.7 µM (inactive)	12 µM (inactive)	23 µM (inactive)	88.7 µM (inactive)	34.7 µM (inactive)	15.7 µM (inactive)	44.5 µM (inactive)
CCOC(=O)c1[nH]cc(C)c1-c1c[nH]c2ccccc12	34.9 µM (inactive)	23 µM (inactive)	15.4 µM (inactive)	19.9 µM (inactive)	16.7 µM (inactive)	33.2 µM (inactive)	42.6 µM (inactive)	18 µM (inactive)	24.9 µM (inactive)	22.3 µM (inactive)	26 µM (inactive)	4.11 µM (inactive)	42.7 µM (inactive)	12.1 µM (inactive)	24.6 µM (inactive)	23.7 µM (inactive)	29 µM (inactive)	13.8 µM (inactive)	19.5 µM (inactive)	14.4 µM (inactive)
O=C1CS(=O)(=O)C(c2cccc(Oc3ccccc3)c2)N1c1ccc(Cl)cc1 (stereo not given)	16.5 µM (inactive)	19 µM (inactive)	17.7 µM (inactive)	3.4 µM (inactive)	30.1 µM (inactive)	14.3 µM (inactive)	14.8 µM (inactive)	14.4 µM (inactive)	18.5 µM (inactive)	13.8 µM (inactive)	17.1 µM (inactive)	20.9 µM (inactive)	25.4 µM (inactive)	15 µM (inactive)	16.8 µM (inactive)	25.1 µM (inactive)	26.5 µM (inactive)	12.3 µM (inactive)	22.6 µM (inactive)	8.71 µM (inactive)
CCCCCCC(O)C(O)CCC(O)C1CCC(CCCCC(O)CC2=CC(C)OC2=O)O1 (stereo not given) [ACETOGENINS]	6.58 µM (inactive)	1.19 µM (inactive)	1.75 µM (inactive)	15.9 µM (inactive)	2.23 µM (inactive)	2.95 µM (inactive)	2.15 µM (inactive)	1.39 µM (inactive)	3.15 µM (inactive)	1.26 µM (inactive)	17.4 µM (inactive)	2.59 µM (inactive)	17 µM (inactive)	2.59 µM (inactive)	7.71 µM (inactive)	2.06 µM (inactive)	1.83 µM (inactive)	1.04 µM (active)	8.09 µM (inactive)	2.06 µM (inactive)
